3 molecules from patent US20140066303A1, “COMPOSITIONS AND METHODS FOR IMPROVING THE COMPATIBILITY OF WATER SOLUBLE HERBICIDE SALTS” (DOW AGROSCIENCES LLC, priority 2012, published 2014) can be followed below.

Format in all cases: physicochemical
A short description of data set [1]: Critical Crystallization Concentration (CCC) of 2,4-D DMA in spray mixtures with glyphosate potassium salt. Conditions: 2,4-D DMA + Roundup PowerMax 1:1 AE; no SAC, control sample; 342 ppm hardness water; 24 h ambient. The text has this:
(§1) Alternatively, the relative effectiveness of the surface active compatibilizers described herein at improving the compatibility of the aqueous herbicide solutions described herein can be determined by measuring the Critical Crystallization Concentration (CCC) of the aryloxyalkanoic acid salt, the pyridyloxyalkanoic acid salt, the arylcarboxylic acid salt, or the heteroarylcarboxylic acid salt of an inorganic cation such as, for example, the potassium salt of 2,4-D in a tank mix solution. The CCC of a particular composition can be measured by preparing saturated and over saturated solutions or mixtures of the composition and then measuring the concentration of the particular herbicidal carboxylic acid remaining in solution. […]
(§2) The CCC of 2,4-D compositions were measured using the following method. […] The CCC was determined by measuring the X-intercept of the extrapolated linear function of the crystal weight vs. 2,4-D wt % AE concentration. […] The amounts of 2,4-D and glyphosate salts were added to achieve desired AE concentrations of 2,4-D and glyphosate at 1:1 ratio, and the amount of water was calculated as a balance ingredient to achieve the final mixture volume of 100 ml. • 7. […]

Data set [2] is described as follows: On-set pH of crystallization (OSPOC) of aqueous 2,4-D potassium solution, titration with sulfuric acid. Conditions: 3% AE w/w 2,4-D K in water; control, no SAC (0.0%); pH lowered with 0.2 N sulfuric acid. An excerpt: Without intending to be bound by theory, the surface active compatibilizers described herein are believed to improve the compatibility of aqueous herbicide solutions comprised of at least one of a water soluble salt of an aryloxyalkanoic acid, a water soluble salt of a pyridyloxyalkanoic acid, a water soluble salt of an arylcarboxylic acid, a water soluble salt of a heteroarylcarboxylic acid and a water soluble salt of glyphosate, a suitable concentration of one or more inorganic cations, and a pH of less than about 6.5 by preventing or inhibiting the crystallization or precipitation of solids. The relative effectiveness of the surface active compatibilizers in preventing the formation of these solids can be estimated by measuring the on-set pH of crystallization (OSPOC) of the solids in a titration analysis procedure. The OSPOC of a particular composition can be measured, for example, by titrating a solution of an aryloxyalkanoic or a pyridyloxyalkanoic acid salt of an inorganic cation such as, for example, the potassium salt of 2,4-D with a strong acid such as, for example, sulphuric acid until solids or crystals begin forming at a particular pH value (the OSPOC). […]

A short description of data set [3]: Critical Crystallization Concentration (CCC) of 2,4-D DMEA in spray mixtures with glyphosate potassium salt. The note with it: 2,4-D DMEA + Roundup PowerMax 1:1 AE; no SAC, control sample; 342 ppm water; 24 h ambient.
Description: as §1, §2

Structures are written as SMILES.

Regarding `CNC.O=C(O)COc1ccc(Cl)cc1Cl` [2,4-D DMA, 2,4-D dimethyl ammonium salt], the “2,4-D CCC” value in data set [1] is 0.89% AE.

Consider `O=C([O-])COc1ccc(Cl)cc1Cl.[K+]` [2,4-D K, 2,4-D potassium], for which the “On-Set pH of Crystallization (OSPOC)” value in data set [2] stood at 6.16.

As for `CN(C)CCO.O=C(O)COc1ccc(Cl)cc1Cl` [2,4-D DMEA, 2,4-D dimethylethanol ammonium salt], in data set [3], the “2,4-D CCC” value is 1.04% AE.
